Activity calls are given as the source filed them. No cut-off for these calls is given here.
What was measured:
[1] = molecular target: T1, Serine palmitoyltransferase (Sphingomonas paucimobilis) (UniProt Q93UV0); test: Binding affinity to Sphingomonas paucimobilis recombinant SPT expressed in Escherichia coli BL21(DE3) at 10 mM after 30 mins by UV-vis spectroscopic analysis
T1 sequence (whole entry): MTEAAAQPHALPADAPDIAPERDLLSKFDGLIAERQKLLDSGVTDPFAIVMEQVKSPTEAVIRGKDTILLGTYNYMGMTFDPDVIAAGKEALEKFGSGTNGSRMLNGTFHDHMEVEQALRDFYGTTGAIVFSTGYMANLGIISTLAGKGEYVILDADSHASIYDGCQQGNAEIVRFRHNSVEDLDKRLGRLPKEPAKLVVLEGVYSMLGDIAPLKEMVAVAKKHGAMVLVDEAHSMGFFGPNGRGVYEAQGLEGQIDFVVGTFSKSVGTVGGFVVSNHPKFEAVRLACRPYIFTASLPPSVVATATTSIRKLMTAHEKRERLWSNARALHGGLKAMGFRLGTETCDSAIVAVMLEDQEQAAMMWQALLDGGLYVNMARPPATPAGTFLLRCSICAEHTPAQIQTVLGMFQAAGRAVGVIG

[2] = molecular target: T1, Serine palmitoyltransferase (Sphingomonas paucimobilis); test: Reversible inhibition of Sphingomonas paucimobilis recombinant SPT expressed in Escherichia coli BL21(DE3) assessed as restoration of enzyme activity at 5 mM after 30 mins by dialysis technique in presence of PLP relative to control; design: scale not given: the % may be the effect or the level left
[3] = molecular target: T1, Serine palmitoyltransferase (Sphingomonas paucimobilis); test: Inhibition of Sphingomonas paucimobilis recombinant SPT expressed in Escherichia coli BL21(DE3) assessed as remaining activity at 5 mM after 30 mins by dialysis technique relative to control
[4] = molecular target: T1, Serine palmitoyltransferase (Sphingomonas paucimobilis); test: Inhibition of Sphingomonas paucimobilis recombinant SPT expressed in Escherichia coli BL21(DE3) by dialysis technique in presence of PLP and potassium phosphate buffer
[5] = molecular target: T1, Serine palmitoyltransferase (Sphingomonas paucimobilis); test: Binding affinity to Sphingomonas paucimobilis recombinant SPT expressed in Escherichia coli BL21(DE3) at 5 mM by ESI-FT-ICR mass spectrometric analysis
[6] = molecular target: T1, Serine palmitoyltransferase (Sphingomonas paucimobilis); test: Inhibition of Sphingomonas paucimobilis recombinant SPT expressed in Escherichia coli BL21(DE3) by membrane filtration assay
[7] = molecular target: T1, Serine palmitoyltransferase (Sphingomonas paucimobilis); test: Binding affinity to Sphingomonas paucimobilis recombinant SPT expressed in Escherichia coli BL21(DE3) at 10 mM by UV-vis spectroscopic analysis; conditions: TDE = time-dependent effect
[8] = molecular target: T1, Serine palmitoyltransferase (Sphingomonas paucimobilis); test: Reversible inhibition of Sphingomonas paucimobilis recombinant SPT expressed in Escherichia coli BL21(DE3) at 1 mM after 1 to 60 mins by UV-vis spectroscopic analysis in presence of Tris-HCl buffer
[9] = molecular target: T1, Serine palmitoyltransferase (Sphingomonas paucimobilis); test: Reversible inhibition of Sphingomonas paucimobilis recombinant SPT expressed in Escherichia coli BL21(DE3) at 1 mM after 1 to 60 mins by UV-vis spectroscopic analysis in presence of potassium phosphate buffer

| Structure (SMILES) | Activity [1] | Activity [2] [%] | Activity [3] [%] | inhibition [4] | Activity [5] | inhibition [6] | Activity [7] | inhibition [8] | inhibition [9] |
| --- | --- | --- | --- | --- | --- | --- | --- | --- | --- |
| CC(C)(S)[C@H](N)C(=O)O | Active | 80 | 3 | Active | Active | Active | – | – | – |
| CC(C)(S)[C@@H](N)C(=O)O | – | 57 | 34 | – | – | – | – | – | – |
| N[C@@H](CS)C(=O)O | – | 83 | 24 | – | – | – | tde | Active | inactive |
| N[C@H](CS)C(=O)O | – | 76 | 22 | – | – | – | – | – | – |

Source: ChEMBL document CHEMBL3217671, “l-Penicillamine is a mechanism-based inhibitor of serine palmitoyltransferase by forming a pyridoxal-5-phosphate-thiazolidine adduct” (Medchemcomm, 2012)
